In patent US11673866B2, “Estrogen receptor beta ligands for the prevention and treatment of multiple sclerosis (MS) and other demyelinating, inflammatory and neurodegenerative diseases” (The Board of Trustees of the University of Illinois, priority 2018, dated 2023):
Entries after “also recorded” stand apart in the source; their conditions may differ.

What was measured:
CXCL1 = CXCL1 staining in thoracic ventral column white matter of EAE mice; type: in vivo, mouse; parameters: key to CNS Chemokines: CXCL1: ‘+’ indicate marker was significantly (p ≤ 0.05) increased in treatment group relative to vehicle; ‘−’ indicates marker was significantly (p ≤ 0.05) decreased in treatment group relative to vehicle; ○: ‘o’ indicate marker did not change relative to vehicle; conditions: vs vehicle; for CXCL1 staining intensity, thoracic ventral column: therapeutic treatment (postEAE)
From the text: (§1) Immunohistochemistry: Before histological staining, 40-μm free floating sections were thoroughly washed with PBS to remove residual sodium azide (Crawford et al., 2010). Sections were permeabilized with 0.3% Triton X-100 in ix PBS and 15% normal goat serum (NGS). Myelination, gliosis and immune markers were visualized by the following primary antibodies at a concentration of 1:500 unless otherwise noted: chicken anti-myelin basic protein (MBP; polyclonal, EMD Millipore, Darmstadt, Germany), chicken anti-glial fibrillary acidic protein (GFAP; EMD Millipore, Darmstadt), rat anti-cluster of differentiation 45 (CD45; clone 30-F11, BD Biosciences, San Diego, Calif.), mouse anti-ionized calcium-binding adapter molecule 1/allograft inflammatory factor-1 (Iba1/AIF1; clone 20A12.1, EMD Millipore, Darmstadt, Germany), goat anti-CXCL1 (R&D systems; Minneapolis, Minn.) at 1:250 and mouse anti-adenomatous polyposis coli (CC-1; clone CC-1, Genetex, Irvine, Calif.). Secondary staining was performed using polyclonal fluorophore-conjugated antibodies from ThermoFisher Scientific at a concentration of 1:500 unless otherwise specified: goat anti-chicken Alexa Fluor® 555 (AF555), goat anti-rabbit Alexa Fluor® 647 (AF647), donkey anti-chicken IgY Cy3 (EMD Millipore), goat anti-rat IgG AF647, goat anti-rabbit IgG Cy3 (EMD Millipore), goat anti-mouse IgG2b AF647 and rabbit anti-goat AF647. Nuclei were counter stained with 4′,6-Diamidino-2-phenylindole (DAPI, 2 ng/ml; Molecular Probes) for 10 minutes after incubation with secondary antibodies, and sections were mounted on glass slides, allowed to dry, and coverslipped with Fluoromount G mounting medium (Thermo Fisher Scientific) for imaging.
(§2) Confocal Microscopy: Thoracic spinal cord dorsal and ventral column sections, as well as CC were imaged using an Olympus BX61 confocal microscope (Olympus America Inc., Center Valley, Pa.) using a 10× and 40× objective. Z-stack projections were compiled using SlideBook 6 software (Intelligent Imaging Innovations, Inc., Denver, Colo.). Immunostaining was quantified using unbiased stereology (Crawford et al., 2010). All images (RGB) were Confocal converted to grayscale, split, and separated by color channel using imageJ version 2.2.0-rc-46/1.50 g (NIH). To avoid experimenter bias, auto-adjustment of brightness and contrast, as well as threshold of staining signal, was carried out by ImageJ. MBP^+, GFAP^+, CD45^+, Iba1^+, CC1^+, and CXCL1^+, staining intensity was measured as percent area of positive immunoreactivity within the region of interest and intensity of signal determined by ImageJ.
Under inflammatory conditions, such as those generated by MS, astrocytes undergo NF-κB-dependent upregulation of CXCL1, which is thought to recruit OPCs to the site of demyelinating injury (Omari et al., 2006; Xue et al., 2014). Thus, having observed that IndCl raised its production by peripheral leukocytes, CXCL1 expression in thoracic ventral column white matter was next evaluated.

[1] = system: CD45+ leukocyte, Iba1+ macrophage/microglia, GFAP+ astrocytes; assay: CD45, Iba1 and GFAP staining in thoracic spinal cord dorsal column of EAE mice; type: in vivo, mouse; parameters: key to CNS Cellular Inflammation: CD45 / CNS Cellular Inflammation: Iba1 / CNS Cellular Inflammation: GFAP: ‘+’ indicate marker was significantly (p ≤ 0.05) increased in treatment group relative to vehicle; ‘−’ indicates marker was significantly (p ≤ 0.05) decreased in treatment group relative to vehicle; ○: ‘o’ indicate marker did not change relative to vehicle; conditions: vs vehicle; for CD45 fluorescence intensity, spinal cord dorsal column / GFAP fluorescence intensity, spinal cord dorsal column: therapeutic treatment (postEAE)
From the text: as §1, §2
To assess whether IndCl analogues exert similar anti-inflammatory effects, CD45+ leukocyte, ionized calcium-binding adapter molecule 1 (Iba1)+ macrophage/microglia, and GFAP+ astrocytes were assessed in thoracic spinal cord dorsal column sections from normal and EAE mice.

[2] = Uterus to body weight ratio in EAE mice; type: in vivo, mouse; conditions: therapeutic treatment (postEAE), female EAE mice
From the text: Estrogens increase uterine weight by acting primarily through ERα (Hewitt and Korach, 2003).

primary OPCs/OLs = assay: Primary OPC/OL differentiation and survival (O4, MOG, DAPI staining); type: cell-based, mouse; conditions: vs vehicle-treated cells, FIG. 12B
From the text: FIG. 12A is representative images of primary OPCs/OLs from wells containing differentiating media in the presence of different analogues. OLs were immunostained with an antigen on the surface of oligodendrocyte progenitors, O4, a marker of mature oligodendrocytes, myelin oligodendrocyte glycoprotein, MOG and co-stained with nuclear stain DAPI.
FIG. 12B and FIG. 12C show quantification of the effects of treatment on the number of MOG+ OLs and the number of total cells (DAPI), respectively. […] There were 3 wells/treatment group. n=3 independent experiments were performed. One-Way ANOVA with Dunnett's multiple comparisons test.
The effect on cell differentiation and survival of estrogen receptor § (ERP) ligand IndCl and analogs were investigated. Some estrogen receptor § (ERP) ligands increase primary mouse oligodendrocyte differentiation (FIGS. 12A-12C).

[3] = Post (therapeutic, postEAE) treatment of EAE mice
[4] = Pre (prophylactic, preEAE) E2 treatment of EAE mice

## Cc1cc(O)ccc1-n1nc2ccc(O)cc2c1Cl [IndCl-o-Me, 3-chloro-2-(4-hydroxy-2-methylphenyl)-2H-indazol-5-ol]
CXCL1; [3]
  CNS Chemokines: CXCL1: +
CXCL1
  CXCL1 staining intensity, thoracic ventral column: significant increase; also recorded: significantly increased
[1]; [3]
  CNS Cellular Inflammation: CD45: −
  CNS Cellular Inflammation: GFAP: ○
  CNS Cellular Inflammation: Iba1: ○
[1]
  CD45 fluorescence intensity, spinal cord dorsal column: similar
  GFAP fluorescence intensity, spinal cord dorsal column: similar

## Oc1ccc(-n2nc3ccc(O)cc3c2Cl)cc1 [IndCl, chloroindazole]
[2]
  uterus to body weight ratio: neither IndCl nor its analogues significantly increased this ratio
CXCL1; [3]
  CNS Chemokines: CXCL1: +
CXCL1
  CXCL1 staining intensity, thoracic ventral column: significant increase; also recorded: significantly increased
Primary OPCs/OLs
  number of MOG+ OLs: significant increase
[1]; [3]
  CNS Cellular Inflammation: CD45: −
  CNS Cellular Inflammation: GFAP: ○
  CNS Cellular Inflammation: Iba1: −
[1]
  CD45 fluorescence intensity, spinal cord dorsal column: similar

## Oc1ccc(-n2nc3ccc(O)cc3c2Cl)c(Cl)c1 [IndCl-o-Cl, 3-chloro-2-(2-chloro-4-hydroxyphenyl)-2H-indazol-5-ol]
CXCL1; [3]
  CNS Chemokines: CXCL1: +
CXCL1
  CXCL1 staining intensity, thoracic ventral column: significant increase; also recorded: significantly increased
[1]; [3]
  CNS Cellular Inflammation: CD45: −
  CNS Cellular Inflammation: GFAP: ○
  CNS Cellular Inflammation: Iba1: ○
[1]
  CD45 fluorescence intensity, spinal cord dorsal column: similar
  GFAP fluorescence intensity, spinal cord dorsal column: similar

## C[C@]12CC[C@@H]3c4ccc(O)cc4CC[C@H]3[C@@H]1CC[C@@H]2O [E2, 170 estradiol]
CXCL1; [3]
  CNS Chemokines: CXCL1: +
CXCL1; [4]
  CNS Chemokines: CXCL1: ○
[1]; [3]
  CNS Cellular Inflammation: CD45: −
  CNS Cellular Inflammation: GFAP: ○
  CNS Cellular Inflammation: Iba1: ○
[1]; [4]
  CNS Cellular Inflammation: CD45: −
  CNS Cellular Inflammation: GFAP: −
  CNS Cellular Inflammation: Iba1: −
